What was measured:
Format in all cases: in vivo
[1] = system: Toxocara canis; test: Efficacy of fenbendazole per os to dogs against Toxocara canis infections (fecal egg counts); conditions: oral liquid formulation, 0.5, 1.0 or 1.5 mg/kg daily Days 0-52 (at least treatment groups 2-4), ~250 T. canis eggs on Day 0, expected by the end of the study period
Description: Efficacy of Fenbendazole Administered per os, i.e. by Mouth, to Dogs for the Treatment and Control of Toxocara canis Infections. Methods: A pool of dogs are to be preliminarily examined to ensure suitability for the example. Dogs must be within normal weight ranges for breed, in good health with no known history of serious disease and neither pregnant nor lactating. Between Day-6 and Day-3, a fecal examination may be performed to confirm the absence of pre-existing infection by any nematode species. Dogs exposed to an anthelmintic within 30 days prior to Day-7 are to be excluded. 20 eligible dogs are to be weighed on Day-2 or Day-1 and randomly assigned to 1 of 5 groups by weight (1 control group and 4 treatment groups). Dogs are to be housed indoors to help prevent naturally occurring parasitic worm infections. Dogs may be pair housed, if compatible, or individually housed until allocation to treatment groups on Day 0. Thereafter, the dogs are to be housed individually. Dogs are to be fed a standard commercially available dog food at the recommended rates and should be allowed access to potable water ad libitum. Each dog in a treatment group (test groups 2-5) is to receive by mouth a liquid formulation of fenbendazole. The dosage is to be administered to the dogs on each of days 0-52 according to test groups, see TABLE 5. [table] […]

[2] = system: Ancylostoma caninum; test: Efficacy of monepantel per os to dogs against Ancylostoma caninum (fecal egg counts); conditions: oral liquid formulation, 0.25 or 0.5 mg/kg daily Days 0-22, ~300 A. caninum larvae on Day 0, expected within approximately 2 weeks
Description: Efficacy of Monepantel Administered per os, i.e. by Mouth, to Dogs for the Treatment and Control of Ancylostoma caninum. Methods: A pool of 12 dogs are to be preliminarily examined to ensure suitability for the example. Dogs must be within normal weight ranges for breed, in good health with no known history of serious disease and neither pregnant nor lactating. Between Day-7 and Day-3, a fecal examination may be performed to confirm the absence of pre-existing infection by any nematode species. Dogs exposed to an anthelmintic within 30 days prior to Day-7 are to be excluded. Dogs are to be weighed on Day-2 and randomly assigned to 1 of 3 groups by weight (1 control group and 2 treatment groups). Dogs may be pair housed, if compatible, or individually housed until allocation to treatment groups on Day 0. Thereafter, the dogs are to be housed individually. Dogs are to be fed a standard commercially available dog food at the recommended rates and should be allowed access to potable water ad libitum. Each dog in a treatment group (test groups 2-3) is to receive by mouth a liquid formulation of monepantel. The dosage is to be administered to the dogs on each of days 0-22 according to test groups, see TABLE 3. [table] Dogs in the control group are not to receive any anthelmintics or any other worm control treatment. Dogs are to be fasted overnight. […]

[3] = system: Toxocara canis; test: Efficacy of monepantel per os to dogs against Toxocara canis (fecal egg counts); conditions: oral liquid formulation, 0.125, 0.25 or 0.5 mg/kg daily Days 0-52, ~250 T. canis eggs on Day 0, all treatment groups, expected by the end of the study period
Description: Efficacy of Monepantel Administered per os, i.e. by Mouth, to Dogs for the Treatment and Control of Toxocara canis.
Methods: A pool of dogs are to be preliminarily examined to ensure suitability for the example. Dogs must be within normal weight ranges for breed, in good health with no known history of serious disease and neither pregnant nor lactating. On Day-6, a fecal examination may be performed to confirm the absence of pre-existing infection by any nematode species. Dogs exposed to an anthelmintic within 30 days prior to Day-7 are to be excluded.
16 eligible dogs are to be weighed on Day-1 and randomly assigned to 1 of 4 groups by weight (1 control group and 3 treatment groups).
Dogs are to be housed indoors to help prevent naturally occurring parasitic worm infections. Dogs may be pair housed, if compatible, or individually housed until allocation to treatment groups on Day 0. Thereafter, the dogs are to be housed individually. Dogs are to be fed a standard commercially available dog food at the recommended rates and should be allowed access to potable water ad libitum.
Each dog in a treatment group (test groups 2-4) is to receive by mouth a liquid formulation of monepantel. The dosage is to be administered to the dogs on each of days 0-52 according to test groups, see TABLE 4.
Dogs in the control group are not to receive any anthelmintics or any other worm control treatment. […]

Compound	efficacy (fecal egg count reduction) [1]	Percent reduction in fecal egg counts [2]	efficacy (fecal egg count reduction) [3]
COC(=O)Nc1nc2ccc(Sc3ccccc3)cc2[nH]1 [Fenbendazole, methyl N-(6-phenylsulfanyl-1H-benzimidazol-2-yl) carbamate]	100%	–	–
C[C@](C#N)(COc1cc(C#N)ccc1C(F)(F)F)NC(=O)c1ccc(SC(F)(F)F)cc1 [Monepantel, N-[(2S)-2-cyano-1-[5-cyano-2-(trifluoromethyl)phenoxy]propan-2-yl]-4-(trifluoromethylsulfanyl)benzamide]	–	100%	100%
